Source: PMC5761078 (Cell reports, 2018)

What was measured:
A1R = target: T1, A1R (Mus musculus, UniProt Q60612); assay: TEpacVV FRET imaging of cAMP in primary neurons; format: cell-based; conditions: agonist, cAMP decrease, bath application
T1 sequence (Q60612 1-326): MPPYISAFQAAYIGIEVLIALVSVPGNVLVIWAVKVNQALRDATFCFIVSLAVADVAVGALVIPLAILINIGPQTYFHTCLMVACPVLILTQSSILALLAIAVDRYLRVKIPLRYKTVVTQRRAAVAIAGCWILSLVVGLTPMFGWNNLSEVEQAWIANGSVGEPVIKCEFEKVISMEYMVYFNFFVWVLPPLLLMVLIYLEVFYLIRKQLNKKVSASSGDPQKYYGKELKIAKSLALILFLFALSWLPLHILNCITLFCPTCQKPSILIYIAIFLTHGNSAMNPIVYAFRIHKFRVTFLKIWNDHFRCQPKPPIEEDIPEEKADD

[1] = target: D1 dopamine receptor (D1R) (Mus musculus, UniProt Q61616); conditions: agonist, cAMP increase; dMSN cell body; bath application
Sequence of D1 dopamine receptor (D1R) (Q61616 whole entry): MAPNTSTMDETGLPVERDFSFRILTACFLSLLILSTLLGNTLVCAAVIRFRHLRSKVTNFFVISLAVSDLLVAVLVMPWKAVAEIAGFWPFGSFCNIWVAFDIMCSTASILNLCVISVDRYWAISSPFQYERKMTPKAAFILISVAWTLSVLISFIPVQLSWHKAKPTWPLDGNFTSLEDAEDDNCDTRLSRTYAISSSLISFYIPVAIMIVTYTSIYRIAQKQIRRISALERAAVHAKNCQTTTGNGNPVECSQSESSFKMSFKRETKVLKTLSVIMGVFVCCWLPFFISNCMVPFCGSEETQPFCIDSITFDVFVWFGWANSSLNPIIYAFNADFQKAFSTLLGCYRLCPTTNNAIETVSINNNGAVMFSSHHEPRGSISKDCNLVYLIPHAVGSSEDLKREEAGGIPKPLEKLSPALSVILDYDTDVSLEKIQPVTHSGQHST

**Q.** For `Nc1ncnc2c1ncn2[C@@H]1O[C@H](CO)[C@@H](O)[C@H]1O` [adenosine], which EC50 (A1R; dMSN cell body) is on record?
**A.** The EC50 was 112 ± 34 nM.

**Q.** With `NCCc1ccc(O)c(O)c1` [dopamine] as the compound, how does the EC50 [1] read?
**A.** The EC50 was 76.5 ± 13.9 nM.

**Q.** How did the EC50 (A1R; dMSN) turn out when `C[C@@]1(O)[C@H](O)[C@@H](CO)O[C@H]1n1cnc2c(NC3CCCC3)nc(Cl)nc21` [2′MeCCPA] was run?
**A.** Its EC50 is 14.6 ± 4.1 nM.
